Experiment [1] addresses T1, Muscarinic acetylcholine receptor M2 (Homo sapiens, UniProt P08172).
T1 sequence (P08172 whole entry): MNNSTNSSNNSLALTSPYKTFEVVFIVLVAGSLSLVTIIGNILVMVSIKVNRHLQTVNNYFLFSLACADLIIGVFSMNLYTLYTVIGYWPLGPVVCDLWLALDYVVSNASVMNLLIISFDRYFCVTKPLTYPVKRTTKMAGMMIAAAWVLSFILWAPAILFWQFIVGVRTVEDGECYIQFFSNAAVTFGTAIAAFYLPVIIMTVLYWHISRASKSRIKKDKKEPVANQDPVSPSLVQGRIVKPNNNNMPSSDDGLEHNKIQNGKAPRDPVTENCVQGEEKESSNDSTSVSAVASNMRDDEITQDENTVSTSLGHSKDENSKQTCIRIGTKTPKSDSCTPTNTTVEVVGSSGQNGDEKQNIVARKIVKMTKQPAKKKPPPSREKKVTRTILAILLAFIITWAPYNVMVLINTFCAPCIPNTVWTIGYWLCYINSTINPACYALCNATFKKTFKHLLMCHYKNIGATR
The experiment in a line: Muscarinic M2 Receptor Binding Assay. The protocol: Cell membrane homogenates (60 μg protein) were incubated for 60 minutes at 22° C. with 2 nM [3H]AF-DX 384 in the absence or presence of the test compound in a buffer containing 50 mM Tris-HCl (pH 7.4), 120 mM NaCl, 5 mM KCl, 5 mM MgCl2, and 1 mM EDTA. Nonspecific binding was determined in the presence of 1 μM atropine. Following incubation, the samples were filtered rapidly under vacuum through glass fiber filters (GF/B, Packard) presoaked with 0.3% PEI and rinsed several times with ice-cold 50 mM Tris-HCl using a 96-sample cell harvester (Unifilter, Packard). The filters were dried then counted for radioactivity in a scintillation counter (Topcount, Packard) using a scintillation cocktail (Microscint 0, Packard). The results were expressed as a percent inhibition of the control radioligand specific binding, from which the Ki was calculated. Data were analyzed using software developed at Cerep (Hill software) and validated by comparison with data generated by the commercial software SigmaPlot 4.0 for Windows ( 1997 by SPSS Inc.).

Another experiment deals with T2, Menin (Homo sapiens, UniProt O00255).
T2 sequence (O00255 whole entry): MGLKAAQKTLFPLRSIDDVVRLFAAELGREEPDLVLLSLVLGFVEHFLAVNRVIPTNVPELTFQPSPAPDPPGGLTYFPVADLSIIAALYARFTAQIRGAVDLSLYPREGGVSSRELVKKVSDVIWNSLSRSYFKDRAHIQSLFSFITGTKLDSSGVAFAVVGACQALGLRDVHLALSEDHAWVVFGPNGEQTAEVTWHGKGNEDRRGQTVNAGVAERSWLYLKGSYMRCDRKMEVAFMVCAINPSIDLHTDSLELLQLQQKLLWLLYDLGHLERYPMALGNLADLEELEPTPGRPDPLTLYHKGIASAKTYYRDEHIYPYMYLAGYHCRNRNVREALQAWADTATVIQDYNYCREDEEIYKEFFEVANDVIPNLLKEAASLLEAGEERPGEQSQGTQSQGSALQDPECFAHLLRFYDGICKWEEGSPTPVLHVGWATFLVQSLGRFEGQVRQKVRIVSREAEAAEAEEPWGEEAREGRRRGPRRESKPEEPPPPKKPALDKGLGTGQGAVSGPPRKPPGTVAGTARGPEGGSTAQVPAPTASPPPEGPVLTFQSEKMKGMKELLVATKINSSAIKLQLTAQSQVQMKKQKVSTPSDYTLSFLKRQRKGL
The experiment in a line: Fluorescence Polarization (FP) Assay. On the procedure: Compounds were tested in a biochemical binding assay using Menin protein at 2 nM (N6his-tev-Menin_4i80, PB-20-1459) and the substrate cRho110-Ahx-MBM1/MBM2 peptide (UbiQ, UbiQ-Q20201030; cRh110-Ahx-[…]-QRVPALLLPPG-NH2) at 1 nM.384 Low volume black plates (Corning #4514) were used. 5 μL/well compound or 3% DMSO was added at 10-fold serial dilutions in DMSO from 10 μM. 5 μL/well cRho110-Ahx-MBM1/MBM2 peptide or binding buffer (50 mM Tris pH 7.5, 50 mM NaCl, 1 mM TCEP, 0.01% BGG, 0.01% Brij-35) was added to all wells. 5 μL/well Menin protein or binding buffer (50 mM Tris pH 7.5, 50 mM NaCl, 1 mM TCEP, 0.01% BGG, 0.01% Brij-35) was added to all wells. Plates were read on an EnVision plate reader (Perkin Elmer) with excitation at 480 nm and emission at 535 nm P+S, and measured every 5 minutes for 180 minutes.
In general terms: Fluorescence polarisation rises when a labelled molecule tumbles more slowly, as on binding a larger partner.

SMILES strings stand for the structures.

The Ki is the dissociation constant of the complex between target and ligand, obtained from inhibition or displacement. A higher Ki goes with weaker binding. The term IC50 denotes the midpoint of a concentration-inhibition curve. Lower therefore signals greater potency. With `CCN(C(=O)c1cc(F)ccc1-n1c(C)c(C(=O)C2CCN(C(=O)[C@H]3NC[C@@H]4C[C@@H]43)CC2)c2ccncc21)C(C)C` (single isomer, unassigned) [US20240335431, Example 48-1], affinity in experiment [1] was put at a Ki of 6700 nM. The compound also registered an IC50 against Menin of 1970 nM.

In turn, `C[C@@H]1CC[C@H](C)N1C(=O)c1cc(F)ccc1-n1cc(C(=O)C2CCN(C(=O)[C@H]3N[C@@H]4CC[C@H]3C4)CC2)c2ccncc21` [US20240335431, Example 32] displayed an IC50 on Menin of 36 nM.

Compound `C[C@@H]1CCC[C@H](C)N1C(=O)c1cc(F)ccc1-n1cc(C(=O)C2CCN(C(=O)[C@H]3N[C@@H]4CC[C@H]3C4)CC2)c2ccncc21` [US20240335431, Example 33] registered an IC50 against Menin of 37 nM.

At Menin, `C[C@@H]1COC[C@H](C)N1C(=O)c1cc(F)ccc1-n1cc(C(=O)C2CCN(C(=O)[C@H]3N[C@@H]4CC[C@H]3C4)CC2)c2ccncc21` [US20240335431, Example 35] had an IC50 of 97 nM.

`CC(C)n1nccc1-c1cc(F)ccc1-n1cc(C(=O)C2CCN(C(=O)[C@H]3N[C@@H]4CC[C@H]3C4)CC2)c2ccncc21` [US20240335431, Example 36]: on Menin, the IC50 stood at 24 nM.

On to `CC(C)c1ncncc1-c1cc(F)ccc1-n1cc(C(=O)C2CCN(C(=O)[C@H]3N[C@@H]4CC[C@H]3C4)CC2)c2ccncc21` [US20240335431, Example 37], for which, at Menin, half-maximal inhibition (IC50) required 9 nM.

The compound `CC(C)c1ncccc1-c1cc(F)ccc1-n1cc(C(=O)C2CCN(C(=O)[C@H]3N[C@@H]4CC[C@H]3C4)CC2)c2ccncc21` [US20240335431, Example 38] came in with an IC50 against Menin of 13 nM.

The compound `CC(C)c1ccccc1-c1cc(F)ccc1-n1cc(C(=O)C2CCN(C(=O)[C@H]3N[C@@H]4CC[C@H]3C4)CC2)c2ccncc21` [US20240335431, Example 39] displayed an IC50 against Menin of 7 nM.

In turn, `O=C(c1cn(-c2ccc(F)cc2-c2cncnc2C2CC2)c2cnccc12)C1CCN(C(=O)[C@H]2N[C@@H]3CC[C@H]2C3)CC1` [US20240335431, Example 40] registered an IC50 against Menin of 18 nM.

On Menin, `CC(C)c1ccncc1-c1cc(F)ccc1-n1cc(C(=O)C2CCN(C(=O)[C@H]3N[C@@H]4CC[C@H]3C4)CC2)c2ccncc21` [US20240335431, Example 41] registered a half-inhibitory concentration (IC50) of 10 nM.

On to `CC(C)c1ncsc1-c1cc(F)ccc1-n1cc(C(=O)C2CCN(C(=O)[C@H]3N[C@@H]4CC[C@H]3C4)CC2)c2ccncc21` [US20240335431, Example 42], for which half-maximal inhibition on Menin (IC50) required 9 nM.

Compound `CC(C)N(C(=O)c1cc(F)ccc1-n1cc(C(=O)C2CCN(C(=O)[C@H]3N[C@@H]4CC[C@H]3C4)CC2)c2c(F)cncc21)C(C)C` [US20240335431, Example 44] displayed an IC50 against Menin of 58 nM.

On Menin, `CCN(C(=O)c1cc(F)ccc1-n1c(C)c(C(=O)C2CCN(C(=O)[C@H]3N[C@@H]4CC[C@H]3C4)CC2)c2ccncc21)C(C)C` [US20240335431, Example 46] registered an IC50 of 34 nM.

`CCN(C(=O)c1cc(F)ccc1-n1c(C)c(C(=O)C2CCN(C(=O)[C@H]3NC[C@@H]4C[C@@H]43)CC2)c2ccncc21)C(C)C` [US20240335431, Example 47] registered an IC50 against Menin of 15 nM.

At Menin, `Cc1c(C(=O)C2CCN(C(=O)[C@H]3NC[C@@H]4C[C@@H]43)CC2)c2ccncc2n1-c1ccc(F)cc1-c1cnccc1C(C)C` [US20240335431, Example 54] returned an IC50 of 15 nM.

For `Cc1c(C(=O)C2CCN(C(=O)[C@@H]3CC[C@H](C)N3)CC2)c2ccncc2n1-c1ccc(F)cc1C(=O)N(C(C)C)C(C)C` [US20240335431, Example 60], at Menin, the IC50 worked out at 105 nM.

At Menin, `Cc1c(C(=O)[C@@H]2CCN(C(=O)[C@@H]3CC[C@H](C)N3)[C@@H](C)C2)c2ccncc2n1-c1ccc(F)cc1C(=O)N(C(C)C)C(C)C` [US20240335431, Example 62] displayed an IC50 of 76 nM.

On Menin, `CCN(C(=O)c1cc(F)ccc1-n1c(C)c(C(=O)[C@@H]2CCN(C(=O)[C@@H]3CC[C@H](C)N3)[C@@H](C)C2)c2ccncc21)C(C)C` [US20240335431, Example 63] yielded an IC50 of 59 nM.

As to `Cc1c(C(=O)[C@@H]2CCN(C(=O)[C@@H]3CC[C@@H](C)N3)[C@@H](C)C2)c2ccncc2n1-c1ccc(F)cc1C(=O)N(C(C)C)C(C)C` [US20240335431, Example 64], at Menin, the IC50 stood at 84 nM.

`CCN(C(=O)c1cc(F)ccc1-n1c(C)c(C(=O)[C@@H]2CCN(C(=O)[C@@H]3CC[C@@H](C)N3)[C@@H](C)C2)c2ccncc21)C(C)C` [US20240335431, Example 65] registered an IC50 at Menin of 79 nM.

For the origin of these results see BindingDB's records for patent US20240335431 (Acerta Pharma, 2024).
